In experiment [1] the test system is H1299 cells stably expressing p53 ts mutants. The experiment can be described thus: Western blot of p53 target gene induction in H1299 stably expressing ts p53 mutants, with CPT. The format is cell-based, human. The procedure:
(§1) FIGS. 1B and 1C show representative p53 ts mutants stably expressed in H1299 cells tested for induction of target gene expression after 20 hrs at 32° C. CPT (0.5 μM for 20 hrs) was added when cells were shifted to 32° C. […] P53 binding to PUMA promoter was determined by ChIP. The results are average of 3 experiments (mean±SD).
FIGS. 10A to 10F show induction of endogenous targets by ts p53 mutants. P53 ts mutants were stably expressed in H1299 cells using lentivirus vector. Cells were tested for induction of target gene expression after 20 hrs at 32° C. by Western blot. CPT (0.5 μM for 20 hrs) was added when cells were shifted to 32° C. A138V was used as a benchmark to facilitate comparison between gels.
Western blot. Cells were lysed in lysis buffer (50 mM Tris-HCl pH 8.0, 5 mM EDTA, 150 mM NaCl, 0.5% Nonidet P-40, 1×protease inhibitor cocktail) and centrifuged for 10 minutes at 14,000×g, and the insoluble debris was discarded. Cell lysate (10-50 µg of protein) was fractionated by SDS-PAGE and transferred to Immobilion P filters (Millipore). The filter was blocked for 1 hr with phosphate buffered saline (PBS) containing 5% non-fat dry milk and 0.1% Tween 20, incubated with primary and secondary antibodies, and the filter was developed using SuperSignal reagent (Thermo Scientific). MDM2 was detected using monoclonal antibody 3G9 produced in house. Other markers were detected using commercial antibodies: Actin (Sigma A5441), p53-DO1 (BD Pharmingen #554293), p21 (BD Pharmingen #556430), PUMA (CellSignaling #12450), PARP (BD Pharmingen #556362), p53 pSer15 (CellSignaling #9284), p53 acetyl-Lys382 (CellSignaling #2525).
Validation of ts p53 mutants from cancer. We selected 17 most frequently observed ts mutants for validation in p53-null H1299 cells. These ts mutants together represent 9.6% (2,358/24,679) of tumors with p53 missense mutations (Table 3), or 64% (2,358/3,658) of tumors with ts p53 mutations. The ability of these mutants to activate the p21 and PUMA promoters at 32° C. were confirmed in reporter assays after transient expression (FIG. 2A, FIG. 8A-8C). […]
Background: In western blotting, separated proteins are transferred to a membrane and probed.

Experiment [2] relates to P53 binding to PUMA promoter. The experiment can be described thus: ChIP of p53 binding to PUMA promoter in H1299 stably expressing p53 mutants. The format is cell-based, human. The settings on record: 0.5 μM CPT at 32° C. for 20 hrs. The procedure: as §1
Chromatin immunoprecipitation (ChIP). ChIP assay was performed using standard procedure. Crosslinked p53-DNA complexes were immunoprecipitated with DO-1 antibody. Samples were subjected to SYBR Green real-time PCR analysis using forward and reverse primers for the p53 binding sites in the p21 promoter ([…] (SEQ ID NO:7) and […] (SEQ ID NO:8)), and PUMA promoter ([…] (SEQ ID NO:9) and […] (SEQ ID NO:10)).

In a further experiment the test system is GA10 tumors. The experiment can be described thus: GA10 subcutaneous tumor xenografts in nude mice treated with CPT with or without hypothermia. The format is in vivo. The protocol:
FIGS. 7A to 7E show hypothermia cooperates with chemotherapy to induce regression of tumors expressing ts p53. […] CPT (1.5 mg/kg) was given at the beginning of each hypothermia cycle. Average size of tumors was plotted over time (mean±SD). FIG. 7B contains pictures of a GA10 partial response tumor before and after treatment. FIG. 7C is a waterfall plot showing combined results of 3 experiments. Tumors with durable remission are marked as “cured”. FIG. 7D contains individual growth curves of representative GA10 tumors from FIG. 7A that achieved durable remission after treatment. FIG. 7E contains individual growth curves of GA10 tumors from FIG. 7A that relapsed and received re-treatment.
FIGS. 14A to 14D show effect of low-dose CPT treatment alone on tumor growth. […] Tumor growth at 37° C. (without hypothermia treatment) was determined at indicated time points. […] Tumor growth at 37° C. (without hypothermia treatment) was determined at indicated time points. […] When tumors reached approximately 100 mm^3 the mice were injected i.p. with 1.5 mg/kg CPT every 3 days. Tumor growth was monitored over time (mean±SD). […] Average size of tumors was plotted over time.
Animal experiment. Animal experiments were reviewed and approved by the University of South Florida IACUC. Athymic female nude mice (6-week old, Athymic Nude-Foxn1nu, Envigo) were injected subcutaneously with 0.1 ml 1:1 slurry of Matrigel (VWR 47743-715) and 1×10^7 cells in PBS at each site. The inoculated mice were housed in a cabinet set to 28° C. (ARIA BIO-C36 ventilated cabinet, TECNIPLAST) to ensure that tumors develop at ˜37° C. Each mouse received injections at 2 sites, tumors formed at >80% of sites injected with GA10 cells. N^6-cyclohexyladenosine (CHA, Sigma C9901) was dissolved at 20 mg/ml in 25% (2-Hydroxypropyl)-β-cyclodextrin (w/v, Sigma H107) and heated at 65° C. for 10 min to ensure dissolution. Camptothecin (CPT, Santa Cruz Biotechnology sc-200871B) was freshly dissolved in 1 N NaOH, diluted to ˜0.5 mg/ml with saline, and adjusted to pH10 using HCl. To induce hypothermia, 0.2 ml saline+10% glucose containing CHA and CPT was administered by intra peritoneal injection to provide a CHA dosage of 10 mg/kg body weight and CPT (when indicated) dosage of 1.5 mg/kg body weight. The mice were kept in the 28° C. cabinet and monitored using infrared thermal imaging camera (FLIR ONE Pro, FLIR® Systems, Inc.) to verify that body temperature was maintained at ˜32° C. A second injection of CHA (10 mg/kg) in 0.4 ml saline+10% glucose was given after 10 hours to maintain hypothermia for ˜24 hours. A third injection of CHA (10 mg/kg) in 0.4 ml saline+10% glucose was given after 10 hours to maintain hypothermia for ˜32 hours. […]

The structures appear in SMILES notation.

As for `CC[C@@]1(O)C(=O)OCc2c1cc1n(c2=O)Cc2cc3ccccc3nc2-1` [CPT, Camptothecin], in experiment [1] (CPT 0.5 μM for 20 hrs at 32° C., Western blot), the “ts p53 Ser15 phosphorylation and K382 acetylation” value is “stimulated”. Also, in experiment [1] (H1299 without p53, CPT 0.5 μM for 20 hrs), the “PUMA expression in the absence of p53” value is “modestly stimulated PUMA expression”. Moreover, in experiment [1] (stably transfected H1299 with ts mutants, CPT 0.5 μM for 20 hrs at 32° C., Western blot), the “induction of endogenous PUMA” value is “could be stimulated”. Further, in experiment [2], the “PUMA promoter binding by the ts mutants (ChIP)” value is “further stimulated the binding”. Also, the “GA10 tumor growth, CPT alone” value in the experiment on GA10 tumors (1.5 mg/kg CPT i.p., 37° C., no hypothermia) was “modestly inhibited GA10 tumor growth at 37 °C but did not cause shrinkage”. Besides, the “response to CPT, GA10 versus GA10-p53KO tumors” value with GA10 tumors (1.5 mg/kg CPT, 37° C. body temperature (p53 inactive)) is recorded as “no difference in response to CPT”. In addition, the “GA10 tumor response to hypothermia+CPT combination” value in the experiment on GA10 tumors (CPT 1.5 mg/kg, 32° C. hypothermia, 32 hr×5 format) is listed as “significant regression”. The “GA10 tumors that did not relapse” value in the experiment with GA10 tumors (hypothermia+CPT, 32 hr×5 format, 50-day observation period after stopping treatment (12/37)) stood at 32%.

The record behind these values is US20240307220A1, “Combination Therapy to Treat Temperature Sensitive Mutant Tumors” (H. LEE MOFFITT CANCER CENTER AND RESEARCH INSTITUTE INC., priority 2021, published 2024).
